Laboratory results taken from US6706664B1, “Benzoxazole compounds, process for the preparation thereof and herbicides” (UBE Industries, Ltd., priority 1999, dated 2004).

How the values were obtained:
Design in all cases: key: 0: normal development; 1: Less damaged; 2: Slightly damaged; 3: Moderately damaged; 4: Severely damaged; 5: All killed
corn [1] = test: Soil treatment test for upland field; assay type: in vivo; conditions: 500 g/ha, glass house 25° C., 3 weeks
Method in brief: (§1)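 Pre-emergence test: seeds sown in Ube alluvial soil in Wagner pots, soil surface sprayed with wettable powder in water with 0.05% surfactant at 500 g/ha. Plants kept in a glasshouse at average 25 °C for 3 weeks, then damage scored 0 (normal) to 5 (all killed).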

cotton [2] = test: Soil treatment test for upland field; assay type: in vivo; conditions: 500 g/ha, glass house 25° C., 3 weeks
Method in brief: as §1

solgum [3] = test: Soil treatment test for upland field; assay type: in vivo; conditions: 500 g/ha, glass house 25° C., 3 weeks
Method in brief: as §1

soybean [4] = test: Soil treatment test for upland field; assay type: in vivo; conditions: 500 g/ha, glass house 25° C., 3 weeks
Method in brief: as §1

sugar beat [5] = test: Soil treatment test for upland field; assay type: in vivo; conditions: 500 g/ha, glass house 25° C., 3 weeks
Method in brief: as §1

wheat [6] = test: Soil treatment test for upland field; assay type: in vivo; conditions: 500 g/ha, glass house 25° C., 3 weeks
Method in brief: as §1

Large crabgrass [7] = test: Soil treatment test for upland field; assay type: in vivo, Digitaria adscendens; conditions: 500 g/ha, glass house 25° C., 3 weeks
Method in brief: as §1

barnyardgrass [8] = test: Soil treatment test for upland field; assay type: in vivo, Echinochloa crusgalli; conditions: 500 g/ha, glass house 25° C., 3 weeks
Method in brief: as §1

green foxtail [9] = test: Soil treatment test for upland field; assay type: in vivo, Setaria viridis; conditions: 500 g/ha, glass house 25° C., 3 weeks
Method in brief: as §1

blackgrass [10] = test: Soil treatment test for upland field; assay type: in vivo, Alopecurus aegualis; conditions: 500 g/ha, glass house 25° C., 3 weeks
Method in brief: as §1

annual bluegrass [11] = test: Soil treatment test for upland field; assay type: in vivo, Poa annua; conditions: 500 g/ha, glass house 25° C., 3 weeks
Method in brief: as §1

common lambsquartes [12] = test: Soil treatment test for upland field; assay type: in vivo, Chenopodium album; conditions: 500 g/ha, glass house 25° C., 3 weeks
Method in brief: as §1

livid amaranth [13] = test: Soil treatment test for upland field; assay type: in vivo, Amaranthus lividus; conditions: 500 g/ha, glass house 25° C., 3 weeks
Method in brief: as §1

velvetleaf [14] = test: Soil treatment test for upland field; assay type: in vivo, Abutilon theophrasti; conditions: 500 g/ha, glass house 25° C., 3 weeks
Method in brief: as §1

corn [15] = test: Foliar spread test for upland field; assay type: in vivo; conditions: foliar spray 500 ppm, 3 weeks, rank vs non-treated
Method in brief: (§2)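 Crops and weeds grown about 2 weeks in volcanic ash soil in a glasshouse, then sprayed with wettable-powder formulations diluted to 500 ppm in water with 0.5% surfactant. After 3 weeks at 25 °C, injury scored visually 0 (normal) to 5 (all killed).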

cotton [16] = test: Foliar spread test for upland field; assay type: in vivo; conditions: foliar spray 500 ppm, 3 weeks, rank vs non-treated
Method in brief: as §2

solgum [17] = test: Foliar spread test for upland field; assay type: in vivo; conditions: foliar spray 500 ppm, 3 weeks, rank vs non-treated
Method in brief: as §2

soybean [18] = test: Foliar spread test for upland field; assay type: in vivo; conditions: foliar spray 500 ppm, 3 weeks, rank vs non-treated
Method in brief: as §2

sugar beat [19] = test: Foliar spread test for upland field; assay type: in vivo; conditions: foliar spray 500 ppm, 3 weeks, rank vs non-treated
Method in brief: as §2

wheat [20] = test: Foliar spread test for upland field; assay type: in vivo; conditions: foliar spray 500 ppm, 3 weeks, rank vs non-treated
Method in brief: as §2

Large crabgrass [21] = test: Foliar spread test for upland field; assay type: in vivo, Digitaria adscendens; conditions: foliar spray 500 ppm, 3 weeks, rank vs non-treated
Method in brief: (§3)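 Seeds are planted in pots of volcanic ash soil and grown roughly 2 weeks under glass. Foliage then receives a uniform spray of compound at 500 ppm in water with 0.5% surfactant. Herbicidal damage is rated 0–5 after 3 weeks at an average 25° C.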

barnyardgrass [22] = test: Foliar spread test for upland field; assay type: in vivo, Echinochloa crusgalli; conditions: foliar spray 500 ppm, 3 weeks, rank vs non-treated
Text: (§4) (0: normal development, 1: Less damaged, 2: Slightly damaged, 3: Moderately damaged, 4: Severely damaged, 5: All killed).
(§5) Wagner pots, each having an area of 1/5000 are, were packed with volcanic ash soil and then each seed of corn, soybean, cotton, wheat, solgum, sugar beat, Large crabgrass, barnyardgrass, green foxtail, blackgrass, annual bluegrass, common lambsquartes, livid amaranth, velvetleaf and morning glory was planted, covered with soil and grown in a glass house at an average temperature of […] for about 2 weeks.
(§6) Each wettable powder of the desired compounds (I) shown in Table 1 prepared in accordance with Example 2 was diluted to 500 ppm with water containing a surfactant (0.5%) and then uniformly sprayed on the above respective plants.
(§7) After these plants were controlled in a glass house at an average temperature of 25° C. for 3 weeks, the herbicidal effects thereof were investigated.
(§8) The herbicidal effects were evaluated according to the evaluation method described in the above (1).

green foxtail [23] = test: Foliar spread test for upland field; assay type: in vivo, Setaria viridis; conditions: foliar spray 500 ppm, 3 weeks, rank vs non-treated
Method in brief: as §3

blackgrass [24] = test: Foliar spread test for upland field; assay type: in vivo, Alopecurus aegualis; conditions: foliar spray 500 ppm, 3 weeks, rank vs non-treated
Text: as §4, §5, §6, §7, §8

annual bluegrass [25] = test: Foliar spread test for upland field; assay type: in vivo, Poa annua; conditions: foliar spray 500 ppm, 3 weeks, rank vs non-treated
Method in brief: as §3

common lambsquartes [26] = test: Foliar spread test for upland field; assay type: in vivo, Chenopodium album; conditions: foliar spray 500 ppm, 3 weeks, rank vs non-treated
Method in brief: as §3

livid amaranth [27] = test: Foliar spread test for upland field; assay type: in vivo, Amaranthus lividus; conditions: foliar spray 500 ppm, 3 weeks, rank vs non-treated
Method in brief: as §3

velvetleaf [28] = test: Foliar spread test for upland field; assay type: in vivo, Abutilon theophrasti; conditions: foliar spray 500 ppm, 3 weeks, rank vs non-treated
Method in brief: as §3

morning glory = test: Foliar spread test for upland field; assay type: in vivo, Ipomoea spps.; conditions: foliar spray 500 ppm, 3 weeks, rank vs non-treated
Method in brief: as §3

Structure (SMILES) | Effects Corn (corn [1]) | Effects Cotton (cotton [2]) | Effects Solgum (solgum [3]) | Effects Soybean (soybean [4]) | Effects Sugar beat (sugar beat [5]) | Effects Wheat (wheat [6]) | Effects Large crabgrass (Large crabgrass [7]) | Effects Barnyardgrass (barnyardgrass [8]) | Effects Green foxtail (green foxtail [9]) | Effects Blackgrass (blackgrass [10]) | Effects Annual bluegrass (annual bluegrass [11]) | Effects Common lambsquarters (common lambsquartes [12]) | Effects Livid amaranth (livid amaranth [13]) | Effects Corn (corn [15]) | Effects Cotton (cotton [16]) | Effects Solgum (solgum [17]) | Effects Soybean (soybean [18]) | Effects Sugar beat (sugar beat [19]) | Effects Wheat (wheat [20]) | Effects Large crabgrass (Large crabgrass [21]) | other results
CCC(Oc1ccc(F)c(C(F)(F)F)c1)c1nc2ccc(C(F)(F)F)cc2o1 (stereo not shown) [Compound 93] | 1 | 1 | 1 | 2 | 5 | 0 | 5 | 4 | 5 | 3 | 5 | 3 | 5 | 2 | 3 | 1 | 4 | 4 | 2 | 3 | Effects Velvetleaf (velvetleaf [14]): 2; Effects Barnyardgrass (barnyardgrass [22]): 2; Effects Green foxtail (green foxtail [23]): 3; Effects Blackgrass (blackgrass [24]): 1; Effects Annual bluegrass (annual bluegrass [25]): 1; Effects Common lambsquarters (common lambsquartes [26]): 4; Effects Livid amaranth (livid amaranth [27]): 4; Effects Velvetleaf (velvetleaf [28]): 2; Effects Morning glory (morning glory): 3
CCC(Oc1ccc(F)c(C(F)(F)F)c1)c1nc2cc(I)ccc2o1 (stereo not shown) [Compound 171] | 0 | 0 | 1 | 0 | 5 | 1 | 5 | 2 | 5 | 1 | 5 | 2 | 5 | 2 | 4 | 2 | 3 | 3 | 2 | 3 | Effects Barnyardgrass (barnyardgrass [22]): 1; Effects Green foxtail (green foxtail [23]): 5; Effects Blackgrass (blackgrass [24]): 1; Effects Annual bluegrass (annual bluegrass [25]): 3; Effects Common lambsquarters (common lambsquartes [26]): 4; Effects Livid amaranth (livid amaranth [27]): 5; Effects Velvetleaf (velvetleaf [28]): 3; Effects Morning glory (morning glory): 5
CCCC(Oc1ccc(F)c(C(F)(F)F)c1)c1nc2ccc(C(F)(F)F)cc2o1 (stereo not shown) [Compound 101] | 0 | 0 | 1 | 0 | 2 | 0 | 5 | 3 | 5 | 3 | 5 | 4 | 5 | 1 | 2 | 1 | 3 | 2 | 1 | 2 | Effects Velvetleaf (velvetleaf [14]): 2; Effects Barnyardgrass (barnyardgrass [22]): 1; Effects Green foxtail (green foxtail [23]): 2; Effects Blackgrass (blackgrass [24]): 1; Effects Annual bluegrass (annual bluegrass [25]): 1; Effects Common lambsquarters (common lambsquartes [26]): 4; Effects Livid amaranth (livid amaranth [27]): 4; Effects Velvetleaf (velvetleaf [28]): 3; Effects Morning glory (morning glory): 3
CCC(Oc1cccc(OC(F)(F)F)c1)c1nc2cc(Cl)ccc2o1 (stereo not shown) [Compound 447] | 2 | 0 | 1 | 0 | 5 | 1 | 5 | 4 | 5 | 5 | 5 | 3 | 5 | 3 | 4 | 3 | 5 | 5 | 2 | 3 | Effects Velvetleaf (velvetleaf [14]): 2; Effects Barnyardgrass (barnyardgrass [22]): 1; Effects Green foxtail (green foxtail [23]): 2; Effects Blackgrass (blackgrass [24]): 2; Effects Annual bluegrass (annual bluegrass [25]): 2; Effects Common lambsquarters (common lambsquartes [26]): 5; Effects Livid amaranth (livid amaranth [27]): 5; Effects Velvetleaf (velvetleaf [28]): 2; Effects Morning glory (morning glory): 5
